From PubChem BioAssay (NCI)
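Tested at 5 concentrations; 48 h exposure; 96-well plates; endpoints linearly interpolated, else capped at highest concentration. GI50 marks 50% less growth. TGI: concentration producing complete growth inhibition.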

Tests used:
Experiment in all cases: NCI-60 cell line screen, 48 h
MDA-MB-231 breast = system: MDA-MB-231 breast
HT29 colon = system: HT29 colon
OVCAR-3 ovarian = system: OVCAR-3 ovarian
TK-10 renal = system: TK-10 renal
M14 melanoma = system: M14 melanoma
SW-620 colon = system: SW-620 colon
UACC-257 melanoma = system: UACC-257 melanoma
NCI-H226 lung = system: NCI-H226 lung
HCT-116 colon = system: HCT-116 colon
A498 renal = system: A498 renal
SNB-19 CNS = system: SNB-19 CNS
IGROV1 ovarian = system: IGROV1 ovarian
RXF 393 renal = system: RXF 393 renal
CCRF-CEM leukemia = system: CCRF-CEM leukemia
SNB-75 CNS = system: SNB-75 CNS
NCI-H522 lung = system: NCI-H522 lung
SF-295 CNS = system: SF-295 CNS
CAKI-1 renal = system: CAKI-1 renal
786-0 renal = system: 786-0 renal
OVCAR-4 ovarian = system: OVCAR-4 ovarian
KM12 colon = system: KM12 colon
RPMI-8226 leukemia = system: RPMI-8226 leukemia
BT-549 breast = system: BT-549 breast
MOLT-4 leukemia = system: MOLT-4 leukemia
MALME-3M melanoma = system: MALME-3M melanoma
HL-60(TB) leukemia = system: HL-60(TB) leukemia
UO-31 renal = system: UO-31 renal
K-562 leukemia = system: K-562 leukemia
MDA-MB-435 = system: MDA-MB-435
NCI-H23 lung = system: NCI-H23 lung
A549 NSCLC = system: A549 NSCLC
OVCAR-8 ovarian = system: OVCAR-8 ovarian
SK-MEL-28 melanoma = system: SK-MEL-28 melanoma
HCC-2998 colon = system: HCC-2998 colon
T-47D breast = system: T-47D breast
U251 CNS = system: U251 CNS
SN12C renal = system: SN12C renal
SF-268 CNS = system: SF-268 CNS
OVCAR-5 ovarian = system: OVCAR-5 ovarian
SK-MEL-5 melanoma = system: SK-MEL-5 melanoma
HCT-15 colon = system: HCT-15 colon
LOX IMVI melanoma = system: LOX IMVI melanoma
ACHN renal = system: ACHN renal
SK-OV-3 ovarian = system: SK-OV-3 ovarian
MCF7 breast = system: MCF7 breast
HS 578T breast = system: HS 578T breast
SR leukemia = system: SR leukemia
COLO 205 colon = system: COLO 205 colon
NCI/ADR-RES ovarian = system: NCI/ADR-RES ovarian
SK-MEL-2 melanoma = system: SK-MEL-2 melanoma
HOP-62 NSCLC = system: HOP-62 NSCLC
SF-539 CNS = system: SF-539 CNS
NCI-H460 lung = system: NCI-H460 lung
HOP-92 NSCLC = system: HOP-92 NSCLC
DU-145 prostate = system: DU-145 prostate
PC-3 prostate = system: PC-3 prostate
UACC-62 melanoma = system: UACC-62 melanoma

`CC(C)C[C@H](NC(=O)Cn1ccc(NCc2ccccc2)cc1=O)B(O)O` was tested, and the GI50 (MDA-MB-231 breast) was 3.18 µM, the TGI (MDA-MB-231 breast) was 19.8 µM and the GI50 (HT29 colon) was 0.814 µM. It also gave a TGI (HT29 colon) of 8.41 µM, a GI50 (OVCAR-3 ovarian) of 0.537 µM and a TGI (OVCAR-3 ovarian) of 3.12 µM. For the same compound, the GI50 (TK-10 renal) was 0.472 µM, the TGI (TK-10 renal) was 5.23 µM and the GI50 (M14 melanoma) was 1.35 µM. The TGI (M14 melanoma) was 7.08 µM, the GI50 (SW-620 colon) was 0.557 µM and the TGI (SW-620 colon) was over 28.6 µM. The GI50 (UACC-257 melanoma) was 0.961 µM, the TGI (UACC-257 melanoma) was 4.73 µM and the GI50 (NCI-H226 lung) was 1.19 µM. It also gave a TGI (NCI-H226 lung) of 5.84 µM, a GI50 (HCT-116 colon) of 0.576 µM and a TGI (HCT-116 colon) of 3.66 µM. It also gave a GI50 (A498 renal) of 0.234 µM, a TGI (A498 renal) of 1.59 µM and a GI50 (SNB-19 CNS) of 4.96 µM. It also gave a TGI (SNB-19 CNS) of over 100 µM, a GI50 (IGROV1 ovarian) of 8.05 µM and a TGI (IGROV1 ovarian) of 54.7 µM. It also gave a GI50 (RXF 393 renal) of 0.346 µM, a TGI (RXF 393 renal) of 1.31 µM and a GI50 (CCRF-CEM leukemia) of 0.511 µM. For the same compound, the TGI (CCRF-CEM leukemia) was over 100 µM, the GI50 (SNB-75 CNS) was 2.33 µM and the TGI (SNB-75 CNS) was 9.72 µM. It also gave a GI50 (NCI-H522 lung) of 0.691 µM, a TGI (NCI-H522 lung) of 3.08 µM and a GI50 (SF-295 CNS) of 2.62 µM. It also gave a TGI (SF-295 CNS) of 15.3 µM, a GI50 (CAKI-1 renal) of 0.499 µM and a TGI (CAKI-1 renal) of 12.8 µM. It also gave a GI50 (786-0 renal) of 2.02 µM, a TGI (786-0 renal) of over 40.1 µM and a GI50 (OVCAR-4 ovarian) of 4.59 µM. It also gave a TGI (OVCAR-4 ovarian) of over 100 µM, a GI50 (KM12 colon) of 3.62 µM and a TGI (KM12 colon) of 17.1 µM. For the same compound, the GI50 (RPMI-8226 leukemia) was 0.304 µM, the GI50 (BT-549 breast) was 0.431 µM and the TGI (BT-549 breast) was 2.59 µM. The GI50 (MOLT-4 leukemia) was 0.319 µM, the GI50 (MALME-3M melanoma) was 2.22 µM and the TGI (MALME-3M melanoma) was over 30 µM. For the same compound, the GI50 (HL-60(TB) leukemia) was 0.439 µM, the TGI (HL-60(TB) leukemia) was 10.7 µM and the GI50 (UO-31 renal) was 1.21 µM. It also gave a TGI (UO-31 renal) of 10.6 µM, a GI50 (K-562 leukemia) of 3.48 µM and a TGI (K-562 leukemia) of over 100 µM. For the same compound, the GI50 (MDA-MB-435) was 0.335 µM, the TGI (MDA-MB-435) was 1.29 µM and the GI50 (NCI-H23 lung) was 5.01 µM. It also gave a TGI (NCI-H23 lung) of over 100 µM, a GI50 (A549 NSCLC) of 5.15 µM and a TGI (A549 NSCLC) of over 100 µM. The GI50 (OVCAR-8 ovarian) was 4.69 µM, the TGI (OVCAR-8 ovarian) was over 100 µM and the GI50 (SK-MEL-28 melanoma) was 0.6 µM. The TGI (SK-MEL-28 melanoma) was 47 µM, the GI50 (HCC-2998 colon) was 2.21 µM and the TGI (HCC-2998 colon) was 5.73 µM. The GI50 (T-47D breast) was 0.785 µM, the TGI (T-47D breast) was 12.4 µM and the GI50 (U251 CNS) was 6.3 µM. The TGI (U251 CNS) was over 100 µM, the GI50 (SN12C renal) was 3.71 µM and the TGI (SN12C renal) was 54.8 µM. The GI50 (SF-268 CNS) was 3.57 µM, the TGI (SF-268 CNS) was 27.5 µM and the GI50 (OVCAR-5 ovarian) was 5.29 µM. The TGI (OVCAR-5 ovarian) was over 100 µM, the GI50 (SK-MEL-5 melanoma) was 0.678 µM and the TGI (SK-MEL-5 melanoma) was 2.89 µM. For the same compound, the GI50 (HCT-15 colon) was 2.62 µM, the TGI (HCT-15 colon) was over 41.6 µM and the GI50 (LOX IMVI melanoma) was 0.606 µM. It also gave a TGI (LOX IMVI melanoma) of 2.31 µM, a GI50 (ACHN renal) of 0.427 µM and a TGI (ACHN renal) of over 100 µM. The GI50 (SK-OV-3 ovarian) was 13.7 µM, the TGI (SK-OV-3 ovarian) was over 100 µM and the GI50 (MCF7 breast) was 0.413 µM. It also gave a TGI (MCF7 breast) of over 100 µM, a GI50 (HS 578T breast) of 3.33 µM and a TGI (HS 578T breast) of 85.3 µM. For the same compound, the GI50 (SR leukemia) was 0.281 µM, the TGI (SR leukemia) was 14.5 µM and the GI50 (COLO 205 colon) was 2.48 µM. For the same compound, the TGI (COLO 205 colon) was over 100 µM, the GI50 (NCI/ADR-RES ovarian) was 17.8 µM and the TGI (NCI/ADR-RES ovarian) was over 100 µM. The GI50 (SK-MEL-2 melanoma) was 1.85 µM, the TGI (SK-MEL-2 melanoma) was 14.8 µM and the GI50 (HOP-62 NSCLC) was 4.86 µM. It also gave a TGI (HOP-62 NSCLC) of 29.5 µM, a GI50 (SF-539 CNS) of 0.296 µM and a TGI (SF-539 CNS) of 1.13 µM. It also gave a GI50 (NCI-H460 lung) of 6.19 µM, a TGI (NCI-H460 lung) of 37.6 µM and a GI50 (HOP-92 NSCLC) of 2.39 µM. For the same compound, the TGI (HOP-92 NSCLC) was 8.35 µM, the GI50 (DU-145 prostate) was 5.48 µM and the TGI (DU-145 prostate) was over 100 µM. The GI50 (PC-3 prostate) was 5.86 µM, the TGI (PC-3 prostate) was 98.9 µM and the GI50 (UACC-62 melanoma) was 1.6 µM. The TGI (UACC-62 melanoma) was 11.1 µM.
